From PMC3773436 (Evidence-based Complementary and Alternative Medicine : eCAM, 2013)
Entries after “also recorded” stand apart in the source; their conditions may differ. Like-named read-outs stand apart in the source and are kept apart here.

Key:
Porcine kidney DPP-IV [1] = biological target: T1, Porcine kidney DPP-IV (Sus scrofa, UniProt P22411); experiment: Inhibitory kinetics study, Lineweaver-Burk plot, Gly-Pro-AMC substrate; type: biochemical; conditions: for Ki: Gly-Pro-AMC 0–60 μM, read-out: K i (enzyme-inhibition constant, experimental)
T1 construct: purchased Sigma-Aldrich; host or cells: porcine kidney (tissue-derived, as named)
Method: Each concentration was evaluated in the presence of various concentrations of Gly-Pro-AMC (0–60 μM). DPP-IV activity was measured using the DPP-IV Glo Protease Assay as mentioned above. The inhibition pattern was evaluated utilizing the Lineweaver-Burk plot. Enzyme-inhibition constant K i was determined by plotting the reciprocal of the initial luminescence versus the reciprocal of the initial substrate concentration.
Initial rates of the reaction were measured, and the results are expressed as a Lineweaver-Burk plot. Data are expressed as the mean of four independent experiments.

Porcine kidney DPP-IV [2] = biological target: T1, Porcine kidney DPP-IV; experiment: DPP-IV Glo Protease Assay (luminescence), DPP-IV inhibition; type: biochemical; conditions: for DPP-IV inhibitory activity (in words): tested at 0.5, 5, 20 and 40 μg/mL, data not shown
Description: All solvents used for phenolic extraction were HPLC-grade and were purchased from Fisher Scientific (Pittsburg, PA). Amberlite XAD-7 was purchased from Sigma-Aldrich (St. Louis, MO). Sephadex LH-20 was purchased from GE Life Sciences (Buckinghamshire, UK). […] DPP-IV Glo^TM Protease Assay kits were purchased from Promega (Madison, WI). […] All other reagents were of analytical grade.
Measurement of the activity and potential inhibition of DPP-IV, a type II membrane glycoprotein, was done using the DPP-IV Glo^TM Protease Assay following the manufacture's protocol (Promega, Madison, WI). Briefly, 50 μL of DPP-IV Glo^TM reagent was added to a white-walled 96-well plate containing 50 μL of blank, positive control, or treatment. The blank contained the vehicle only while positive control contained the vehicle and purified DPP-IV enzyme (at a final concentration of 1 ng/mL). […] The content of the wells was gently mixed using an Ultra Microplate Reader (Biotek Instruments, Winooski, VT) at medium intensity for 4 s. DPP-IV cleavage of the provided Gly-Pro-amino methyl coumarin (AMC) substrate generated a luminescent signal by luciferase reaction, with the amount of DPP-IV enzyme available to bind Gly-Pro-AMC proportional to relative light units (RLU) produced. This signal in RLU was measured after 30 min in the Ultra Microplate Reader and then compared to the blank. […] IC50 values were calculated based on the molecular mass of each compound or C3G as the equivalent for ANC-enriched fractions.
Data were expressed as means of independent duplicates with at least three replicates. […] Statistical analysis was conducted using the proc GLM procedures of SAS version 9.3 (SAS Inst. Inc., Cary, NC, 2009). Group mean comparisons were conducted using Duncan means and were considered to be significant at P < 0.05 based on the least significant differences (LSD) from one-way analysis of variance (ANOVA) with alpha = 0.05. Correlations were made using Pearson's correlation values with P < 0.05.

[3] = pure compounds, concentration based on molecular mass, means ± SEM, read-out: IC50, DPP-IV inhibition

T1 sequence (P22411 whole entry): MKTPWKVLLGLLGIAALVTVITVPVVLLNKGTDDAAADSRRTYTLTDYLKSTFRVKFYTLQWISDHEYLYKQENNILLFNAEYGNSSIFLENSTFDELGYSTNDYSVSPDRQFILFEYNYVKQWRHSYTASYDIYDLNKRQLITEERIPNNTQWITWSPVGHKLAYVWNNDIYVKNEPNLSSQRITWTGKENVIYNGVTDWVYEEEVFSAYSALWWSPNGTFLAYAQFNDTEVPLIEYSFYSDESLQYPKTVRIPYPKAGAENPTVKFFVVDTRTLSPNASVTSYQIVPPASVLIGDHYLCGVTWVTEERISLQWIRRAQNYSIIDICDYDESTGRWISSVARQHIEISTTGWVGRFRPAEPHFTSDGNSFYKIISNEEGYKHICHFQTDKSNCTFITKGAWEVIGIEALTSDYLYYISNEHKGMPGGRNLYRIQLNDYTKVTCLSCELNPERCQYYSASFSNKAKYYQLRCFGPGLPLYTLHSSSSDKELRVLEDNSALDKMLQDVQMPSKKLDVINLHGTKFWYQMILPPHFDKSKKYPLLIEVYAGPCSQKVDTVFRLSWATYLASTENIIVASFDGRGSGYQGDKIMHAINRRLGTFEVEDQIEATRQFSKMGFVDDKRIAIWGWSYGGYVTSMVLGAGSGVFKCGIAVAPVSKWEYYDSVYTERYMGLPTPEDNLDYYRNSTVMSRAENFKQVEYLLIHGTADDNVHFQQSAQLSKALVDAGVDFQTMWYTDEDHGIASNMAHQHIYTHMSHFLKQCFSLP

O=c1cc(-c2ccc(O)cc2)oc2cc(O)cc(O)c12 [Apigenin, apigenin]
Inhibition manner (Porcine kidney DPP-IV [1]): noncompetitively; also recorded: noncompetitive
Ki (Porcine kidney DPP-IV [1]): 7900 ± 1400 nM
IC50 (Porcine kidney DPP-IV [2]; [3]): 140 ± 20 nM

O=C(O)/C=C/c1ccc(O)c(O)c1 [Caffeic acid, caffeic acid]
IC50 (Porcine kidney DPP-IV [2]; [3]): 3370 ± 140 nM

Oc1cc(O)c2cc(O)c(-c3ccc(O)c(O)c3)[o+]c2c1 [Cyanidin, cyanidin]
IC50 (Porcine kidney DPP-IV [2]; [3]): 1410 ± 250 nM

OC[C@H]1O[C@@H](Oc2cc3c(O)cc(O)cc3[o+]c2-c2ccc(O)c(O)c2)[C@H](O)[C@@H](O)[C@@H]1O [Cyanidin-3-glucoside, cyanidin-3-glucoside]
IC50 (Porcine kidney DPP-IV [2]; [3]): 420 ± 90 nM

O=C(O[C@@H]1Cc2c(O)cc(O)cc2O[C@@H]1c1cc(O)c(O)c(O)c1)c1cc(O)c(O)c(O)c1 [EGCG, epigallocatechin gallate]
IC50 (Porcine kidney DPP-IV [2]; [3]): 10200 ± 750 nM

C[C@@H]1O[C@@H](OC[C@H]2O[C@@H](Oc3cc(O)c4c(c3)O[C@H](c3ccc(O)c(O)c3)CC4=O)[C@H](O)[C@@H](O)[C@@H]2O)[C@H](O)[C@H](O)[C@H]1O [Eriocitrin, eriocitrin]
IC50 (Porcine kidney DPP-IV [2]; [3]): 10360 ± 90 nM

O=c1cc(-c2ccccc2)oc2ccccc12 [Flavone, flavone]
Inhibition manner (Porcine kidney DPP-IV [1]): competitive
Ki (Porcine kidney DPP-IV [1]): 18600 ± 300 nM
IC50 (Porcine kidney DPP-IV [2]; [3]): 170 ± 10 nM

O=C(O)c1cc(O)c(O)c(O)c1 [Gallic acid, gallic acid]
IC50 (Porcine kidney DPP-IV [2]; [3]): 4650 ± 990 nM

O=c1c(-c2ccc(O)cc2)coc2cc(O)cc(O)c12 [Genistein, genistein]
IC50 (Porcine kidney DPP-IV [2]; [3]): 480 ± 40 nM

COc1ccc([C@@H]2CC(=O)c3c(O)cc(O)cc3O2)cc1O [Hesperetin, hesperetin]
IC50 (Porcine kidney DPP-IV [2]; [3]): 280 ± 70 nM

O=c1c(O)c(-c2ccc(O)cc2)oc2cc(O)cc(O)c12 [Kaempferol, kaempferol]
IC50 (Porcine kidney DPP-IV [2]; [3]): 490 ± 20 nM

O=c1cc(-c2ccc(O)c(O)c2)oc2cc(O)cc(O)c12 [Luteolin, luteolin]
Inhibition manner (Porcine kidney DPP-IV [1]): noncompetitively; also recorded: noncompetitive
Ki (Porcine kidney DPP-IV [1]): 4900 ± 200 nM
IC50 (Porcine kidney DPP-IV [2]; [3]): 120 ± 10 nM

COc1cc(-c2[o+]c3cc(O)cc(O)c3cc2O)cc(OC)c1O [Malvidin, malvidin]
IC50 (Porcine kidney DPP-IV [2]): 740 ± 160 nM

O=C1C[C@@H](c2ccc(O)cc2)Oc2cc(O)cc(O)c21 [Naringenin, naringenin]
IC50 (Porcine kidney DPP-IV [2]; [3]): 240 ± 30 nM

O=c1c(O)c(-c2ccc(O)c(O)c2)oc2cc(O)cc(O)c12 [Quercetin, quercetin]
IC50 (Porcine kidney DPP-IV [2]; [3]): 2920 ± 680 nM

Oc1ccc(/C=C/c2cc(O)cc(O)c2)cc1 [Resveratrol, resveratrol]
Inhibition manner (Porcine kidney DPP-IV [1]): competitive
Ki (Porcine kidney DPP-IV [1]): 200 ± 10 nM
IC50 (Porcine kidney DPP-IV [2]; [3]): 0.6 ± 0.4 nM

O.Oc1cc(O)c2c(c1)O[C@H](c1ccc(O)c(O)c1)[C@@H](O)C2 [catechin]
DPP-IV inhibitory activity (in words) (Porcine kidney DPP-IV [2]): did not have DPP-IV inhibitory activity

O=C(/C=C/c1ccc(O)c(O)c1)O[C@@H]1C[C@](O)(C(=O)O)C[C@@H](O)[C@H]1O [chlorogenic acid]
DPP-IV inhibitory activity (in words) (Porcine kidney DPP-IV [2]): did not have DPP-IV inhibitory activity

Oc1cc(O)c2c(c1)O[C@H](c1ccc(O)c(O)c1)[C@H](O)C2 [epicatechin]
DPP-IV inhibitory activity (in words) (Porcine kidney DPP-IV [2]): did not have DPP-IV inhibitory activity

O=c1c(-c2ccc(O)cc2)coc2cc(O[C@@H]3O[C@H](CO)[C@@H](O)[C@H](O)[C@H]3O)cc(O)c12 [genistin]
DPP-IV inhibitory activity (in words) (Porcine kidney DPP-IV [2]): did not have DPP-IV inhibitory activity

COc1ccc([C@@H]2CC(=O)c3c(O)cc(O[C@@H]4O[C@H](CO[C@@H]5O[C@@H](C)[C@H](O)[C@@H](O)[C@H]5O)[C@@H](O)[C@H](O)[C@H]4O)cc3O2)cc1O [hesperidin]
DPP-IV inhibitory activity (in words) (Porcine kidney DPP-IV [2]): did not have DPP-IV inhibitory activity; also recorded: no DPP-IV inhibitory effect

CC1(C)O[C@H]2CC(=O)OC[C@]23[C@H]2CC[C@@]4(C)[C@H](c5ccoc5)OC(=O)[C@H]5O[C@]54[C@]2(C)C(=O)C[C@@H]13 [limonin]
DPP-IV inhibitory activity (in words) (Porcine kidney DPP-IV [2]): did not have DPP-IV inhibitory activity

C[C@@H]1O[C@@H](O[C@H]2[C@H](Oc3cc(O)c4c(c3)O[C@H](c3ccc(O)cc3)CC4=O)O[C@H](CO)[C@@H](O)[C@@H]2O)[C@H](O)[C@H](O)[C@H]1O [naringin]
DPP-IV inhibitory activity (in words) (Porcine kidney DPP-IV [2]): did not have DPP-IV inhibitory activity; also recorded: no DPP-IV inhibitory effect

C[C@@H]1O[C@@H](OC[C@H]2O[C@@H](Oc3cc(O)c4c(c3)O[C@H](c3ccc(O)cc3)CC4=O)[C@H](O)[C@@H](O)[C@@H]2O)[C@H](O)[C@H](O)[C@H]1O [narirutin]
DPP-IV inhibitory activity (in words) (Porcine kidney DPP-IV [2]): did not have DPP-IV inhibitory activity; also recorded: no DPP-IV inhibitory effect

COc1ccc([C@@H]2CC(=O)c3c(O)cc(O[C@@H]4O[C@H](CO)[C@@H](O)[C@H](O)[C@H]4O[C@@H]4O[C@@H](C)[C@H](O)[C@@H](O)[C@H]4O)cc3O2)cc1O [neohesperidin]
DPP-IV inhibitory activity (in words) (Porcine kidney DPP-IV [2]): did not have DPP-IV inhibitory activity; also recorded: no DPP-IV inhibitory effect

O=C(O)c1ccc(O)c(O)c1 [protocatechuic acid]
DPP-IV inhibitory activity (in words) (Porcine kidney DPP-IV [2]): did not have DPP-IV inhibitory activity

C[C@@H]1O[C@@H](OC[C@H]2O[C@@H](Oc3c(-c4ccc(O)c(O)c4)oc4cc(O)cc(O)c4c3=O)[C@H](O)[C@@H](O)[C@@H]2O)[C@H](O)[C@H](O)[C@H]1O [rutin, rutin hydrate]
DPP-IV inhibitory activity (in words) (Porcine kidney DPP-IV [2]): did not have DPP-IV inhibitory activity; also recorded: no DPP-IV inhibitory effect
